Data set [1] concerns the target T1, High affinity nerve growth factor receptor (Homo sapiens, UniProt P04629).
Description: Inhibition of human TRKA kinase domain by HTRF KinEASE biochemical assay
Data set [2] in a line: in vitro. Particulars: dog, liver microsomes. (Microsomes from liver hold many membrane-bound enzymes, among them those of drug oxidation.)
Description: Half-life in dog liver microsome
The target of data set [3] is T1, High affinity nerve growth factor receptor. This is another data set of the same source.
Description: Inhibition of human TRKA at active state assessed as inhibition of substrate phosphorylation using fluorescently-labelled peptide as substrate by caliper assay
Data set [4] has the same target. This is another data set of the same source.
Description: Inhibition of human TRKA at inactive state assessed as inhibition of substrate phosphorylation using fluorescently-labelled peptide as substrate by caliper assay
Data set [5] has as its target BDNF/NT-3 growth factors receptor (Homo sapiens, UniProt Q16620).
Description: Inhibition of human TRKB by FLIPR assay
The target in data set [6] is T1, High affinity nerve growth factor receptor. This is another data set of the same source.
Description: Inhibition of human TRKA by FLIPR assay
Data set [7] is described as follows: in vitro. Particulars: cat, liver microsomes.
Description: Half-life in cat liver microsome
Data set [8] in a line: in vitro. Particulars: dog, MDCK.
Description: Permeability from apical to basolateral side in dog MDCK cells
Data set [9] in a line: in vitro. Particulars: dog, MDCK-MDR1.
Description: Permeability from basolateral to apical side in dog MDCK cells
The target of data set [10] is T1, High affinity nerve growth factor receptor. This is another data set of the same source.
Description: Inhibition of human TRKA at active state by kinetic based analysis
For data set [11] the target is unchanged. The source holds these as a separate data set.
Description: Inhibition of human TRKA at inactive state by kinetic based analysis

pIC50, pKi: −log10 of the molar value. Values after ≈ are worked out from the molar mass of the structure shown.

Usually pIC50 stands for the negative decadic logarithm of the IC50, by convention in mol/L. What is called half-life is how long it takes for the measured level to halve. A high value points to slow decline. The solubility (kinetic) is the concentration staying in solution when a stock, usually in DMSO, is diluted into the medium. For orientation: Papp A→B means the apparent permeability from the apical to the basolateral side of a cell layer. Low readings indicate slow passage, high ones fast passage. A word on the Papp B→A: it is the apparent permeability from the basolateral to the apical side of a cell layer. As a reminder, the pKi is the negative decadic logarithm of the Ki, by convention in mol/L. Read a low pKi as a high Ki.

BDNF/NT-3 growth factors receptor, sequence (Q16620 whole entry): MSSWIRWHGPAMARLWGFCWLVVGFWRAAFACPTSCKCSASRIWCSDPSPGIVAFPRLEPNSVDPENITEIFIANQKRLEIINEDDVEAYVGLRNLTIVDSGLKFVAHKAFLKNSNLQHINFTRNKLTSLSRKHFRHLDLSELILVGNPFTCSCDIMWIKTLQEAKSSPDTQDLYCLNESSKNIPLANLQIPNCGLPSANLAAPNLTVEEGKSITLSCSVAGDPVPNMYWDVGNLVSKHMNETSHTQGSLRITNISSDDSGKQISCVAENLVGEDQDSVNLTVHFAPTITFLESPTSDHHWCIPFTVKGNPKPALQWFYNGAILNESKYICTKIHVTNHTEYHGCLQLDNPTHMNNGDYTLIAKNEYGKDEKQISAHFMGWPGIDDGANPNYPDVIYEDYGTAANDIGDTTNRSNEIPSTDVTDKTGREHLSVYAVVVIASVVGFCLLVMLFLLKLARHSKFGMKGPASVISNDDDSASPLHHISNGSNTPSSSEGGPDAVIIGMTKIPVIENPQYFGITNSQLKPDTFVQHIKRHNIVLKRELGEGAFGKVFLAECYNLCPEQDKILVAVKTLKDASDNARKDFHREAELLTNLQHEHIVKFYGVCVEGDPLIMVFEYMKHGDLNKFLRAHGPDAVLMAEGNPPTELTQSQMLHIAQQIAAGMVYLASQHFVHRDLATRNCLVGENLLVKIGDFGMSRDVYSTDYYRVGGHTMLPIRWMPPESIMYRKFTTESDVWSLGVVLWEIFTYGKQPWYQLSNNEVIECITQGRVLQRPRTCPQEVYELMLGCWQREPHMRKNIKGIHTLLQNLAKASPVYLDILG
T1 sequence (P04629 whole entry): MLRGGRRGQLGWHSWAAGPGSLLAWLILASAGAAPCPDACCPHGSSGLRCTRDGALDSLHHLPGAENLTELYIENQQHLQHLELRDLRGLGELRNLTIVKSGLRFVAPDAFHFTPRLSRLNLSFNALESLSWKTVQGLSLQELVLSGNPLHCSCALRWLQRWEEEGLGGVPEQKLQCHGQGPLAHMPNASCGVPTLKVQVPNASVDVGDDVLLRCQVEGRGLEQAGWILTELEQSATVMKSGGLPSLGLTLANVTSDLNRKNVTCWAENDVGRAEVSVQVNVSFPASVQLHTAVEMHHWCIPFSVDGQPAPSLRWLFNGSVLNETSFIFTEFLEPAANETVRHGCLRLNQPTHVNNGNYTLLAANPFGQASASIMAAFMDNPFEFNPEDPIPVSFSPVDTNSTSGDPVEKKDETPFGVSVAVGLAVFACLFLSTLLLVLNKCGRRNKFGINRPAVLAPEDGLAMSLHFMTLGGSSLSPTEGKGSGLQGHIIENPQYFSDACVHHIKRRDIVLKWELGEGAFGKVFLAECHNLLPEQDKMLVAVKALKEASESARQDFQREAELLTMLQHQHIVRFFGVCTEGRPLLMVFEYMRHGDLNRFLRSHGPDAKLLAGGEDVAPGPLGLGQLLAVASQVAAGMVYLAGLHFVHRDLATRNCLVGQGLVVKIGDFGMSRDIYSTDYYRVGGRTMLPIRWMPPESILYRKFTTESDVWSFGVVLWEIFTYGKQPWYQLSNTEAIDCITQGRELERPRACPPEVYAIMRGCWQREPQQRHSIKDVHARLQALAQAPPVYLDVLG
Description for physchem: Kinetic solubility of compound

On to `COc1ccc(Cl)cc1NC(=O)Nc1ccc2nc(NC(=O)c3ccccc3)sc2c1`, for which the pIC50 in data set [1] is 6.75; in [3], under 5.00; in [4], under 5.00; in data set [5] it was under 4.70; in data set [6], under 4.70. Also, the half-life in “in vitro [2]” is 1.25 h; in the data set “in vitro [7]”, 0.933 h. This compound also showed a solubility (kinetic) in the data set “physchem” of 1.3 µM (≈ 0.589 µg/mL).
With `COc1ccc(-n2ncc3c(=O)n(CC(=O)Nc4cc(C(F)(F)F)ccc4Cl)cnc32)cc1`, the pIC50 in data set [1] was 6.99; in data set [5] it was under 4.70; in data set [6], 5.12. The half-life in the data set “in vitro [2]” and in “in vitro [7]” was 2 h in each case. Further, the solubility (kinetic) in “physchem” came to 3.5 µM (≈ 1.67 µg/mL). Besides, the Papp A→B in “in vitro [8]” stood at 4.8 ×10⁻⁶ cm/s. The compound further gave a Papp B→A in the data set “in vitro [9]” of 6.4 ×10⁻⁶ cm/s.
For `O=C(Nc1ccc(N2CCOCC2)cc1N1CCOCC1)c1cnn(-c2ccccc2)n1`, the negative logarithm of the IC50 (pIC50) in data set [1] is 8.28; in data set [3], 7.35; in data set [4], 7.68; in data set [5], 4.80; in [6] it was 6.77. Further, the half-life in the data set “in vitro [2]” stood at 1.35 h; in “in vitro [7]”, 0.267 h. Further, the pKi in data set [10] was 9.40; in data set [11], 9.00. In addition, in “physchem”, the kinetic solubility was 12.7 µM (≈ 5.52 µg/mL). This compound also displayed a Papp A→B in the data set “in vitro [8]” of 4.1 ×10⁻⁶ cm/s. This compound also yielded a Papp B→A in the data set “in vitro [9]” of 7.6 ×10⁻⁶ cm/s.
As to `O=C(Nc1ccc(N2CCOCC2)cc1N1CCOCC1)c1cccc(Oc2ccccc2)c1`, the negative logarithm of the IC50 (pIC50) in data set [3] was 7.12; in data set [4], 7.03.
With `NC(=O)c1ccc(-c2nnn(CC(=O)Nc3cc(C(F)(F)F)ccc3-n3cncn3)n2)cc1`, the pIC50 in data set [1] was 7.33; in data set [5] it was under 4.70; in data set [6], under 4.70. The half-life in the data set “in vitro [2]” and in the data set “in vitro [7]” was 2 h in each case. Besides, the solubility (kinetic) in “physchem” worked out at 15.9 µM (≈ 7.27 µg/mL).
